Measured values: publication PMC2851732, “Peptide Inhibitors of Dengue-Virus Entry Target a Late-Stage Fusion Intermediate” (PLoS Pathogens, 2010)
Ends that are not written are not given here.

Target: T1, DV2 sE(1–395) postfusion trimer (Dengue virus type 2, UniProt P12823)
T1 construct: The sE component (residues 1–395) of the ectodomain is in ribbon representation; purchased Hawai'i Biotech
Assay: Fluorescence polarization binding of FITC-tagged stem peptides to postfusion sE trimer
Parameters: species or system dengue virus serotype 2

Question: How did the IC50 turn out when AWDFGSLGGVFTSIGKALHQVF [DV2^419-440] was run?
Answer: 250 nM

Question: With “AILGDTAWDFGSLGGVFTSIGKALHQVF [DV2^413-440]” as the sequence, how does the IC50 read?
Answer: 250 nM

Question: AILGDTAWDFGSLGGVFTSIGKA [DV2^413-435] was tested. Which IC50 did it give?
Answer: 2000 nM
